Test results taken from patent US20100210649A1, “PYRIDAZINONES AND FURAN-CONTAINING COMPOUNDS” (Sloan-Kettering Institute for Cancer Research, priority 2006, published 2010).
Read-outs that look alike come from different tables or passages of the source.

Columns and labels:
H1975 = assay: Non Small Cell Lung Cancer proliferation assay (Alamar Blue reduction), H1975; type: cell-based, human; conditions: Homo sapiens
Outline: (§1)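 Human NSCLC cells were seeded at 250 cells/well with compound at a final 1% DMSO and treated for 48 hours at 37° C. 1% DMSO served as the high control.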

H3255 = assay: Non Small Cell Lung Cancer proliferation assay (Alamar Blue reduction), H3255; type: cell-based, human; conditions: Homo sapiens
Outline: as §1

H358 = assay: Non Small Cell Lung Cancer proliferation assay (Alamar Blue reduction), H358; type: cell-based; conditions: Homo sapiens, NCI-H358
Outline: as §1

in vitro = conditions: human
[1] = tested on: HPL1D (human peripheral lung epithelial) cell line; assay: Cell proliferation / dose response (Alamar Blue), HPL1D; type: cell-based; conditions: HPL1D, 12 point doubling dilution 10 uM to 5 nM, 48 h treatment, alamar blue additional 48 h, read-out: IC50 HPL1D
Method: WI-38: human lung fibroblast cell line. […] WT: wildtype; WT*: over-expressed wildtype. Dose response studies against 34 compounds from the pyridazinone and phenylfuran-carboxamide class were conducted. […] In addition, Tarceva was included in these dose response studies. The dose response studies were done with the following standard procedure. […] The cells were incubated for 48 hours at 37 C to complete treatment, and then alamar blue was added for an additional 48 hours. Finally, alamar blue reduction was measured and the data was loaded into ORIS, our data screening acquisition platform.

PC9 = assay: Dose response study (Alamar Blue), PC9; type: cell-based; conditions: Homo sapiens, PC-9; PC9; 12 point doubling dilution 10 uM to 5 nM; 48 h treatment, alamar blue additional 48 h; read-out: IC50 PC9
Method: (§2) Dose response studies against 34 compounds from the pyridazinone and phenylfuran-carboxamide class were conducted. […] In addition, Tarceva was included in these dose response studies.
(§3) The dose response studies were done with the following standard procedure. First, the cells were counted and dispensed at 250 cells/well into 384-well microplates with compound. The cells were incubated for 48 hours at 37 C to complete treatment, and then alamar blue was added for an additional 48 hours. Finally, alamar blue reduction was measured and the data was loaded into ORIS, our data screening acquisition platform.

H23 = assay: Dose response study (Alamar Blue), H23; type: cell-based; conditions: Homo sapiens, NCI-H23; H23; 12 point doubling dilution 10 uM to 5 nM; 48 h treatment, alamar blue additional 48 h; read-out: IC50 H23
Method: as §2, §3

H460 = assay: Dose response study (Alamar Blue), H460; type: cell-based; conditions: Homo sapiens, NCI-H460; H460; 12 point doubling dilution 10 uM to 5 nM; 48 h treatment, alamar blue additional 48 h; read-out: IC50 H460
Method: as §2, §3

H2122 = assay: Dose response study (Alamar Blue), H2122; type: cell-based; conditions: Homo sapiens, NCI-H2122; H2122; 12 point doubling dilution 10 uM to 5 nM; 48 h treatment, alamar blue additional 48 h; read-out: IC50 H2122
Method: as §2, §3

[2] = NCI-H1975, 48 h, H1975, 12 point doubling dilution 10 uM to 5 nM, 48 h treatment, alamar blue additional 48 h, read-out: IC50 H1975
[3] = NCI-H1975, dose response 10 M to 5 nM, IC50, read-out: Dose Response (uM) H1975
[4] = NCI-H3255, 48 h, H3255, 12 point doubling dilution 10 uM to 5 nM, 48 h treatment, alamar blue additional 48 h, read-out: IC50 H3255
[5] = NCI-H3255, dose response 10 M to 5 nM, IC50, read-out: Dose Response (uM) H3255
[6] = H358, 12 point doubling dilution 10 uM to 5 nM, 48 h treatment, alamar blue additional 48 h, read-out: IC50 H358
[7] = read-out: Dose Response (uM) H358

Structure (SMILES)	IC50 (H1975; [2])	IC50 (H1975; [3])	IC50 (H3255; [4])	IC50 (H3255; [5])	IC50 (H358; [6])	IC50 (H358; [7])	IC50 at 72 h (in vitro; CytoTox (uM) NHBE)	IC50 at 72 h (in vitro; CytoTox (uM) WI-38)	IC50 [1]	IC50 (PC9)	IC50 (H23)	IC50 (H460)	IC50 (H2122)
Cc1cc(-n2ncc(Cl)c(Cl)c2=O)ccc1Cl [compound 267065]	> 10 µM	1.89 µM	> 10 µM	> 10 µM	> 10 µM	1.24 µM	> 10 µM	> 10 µM	6660 nM	> 10000 nM	6960 nM	> 10000 nM	> 10000 nM
O=c1c(Br)c(Br)cnn1-c1ccccc1 [compound 257015]	0.32 µM	0.16 µM	0.76 µM	0.62 µM	0.43 µM	0.16 µM	2.38 µM	3.03 µM	300 nM	710 nM	230 nM	1300 nM	1260 nM
Cc1cccc(-n2ncc(I)c(I)c2=O)c1 [compound 267085]	0.8 µM	0.5 µM	2.13 µM	0.71 µM	1.33 µM	0.3 µM	2.88 µM	5.51 µM	680 nM	2240 nM	720 nM	3490 nM	2340 nM
Cc1ccc(-n2ncc(Cl)c(Cl)c2=O)cc1Cl [compound 267070]	> 10 µM	0.91 µM	> 10 µM	3.1 µM	> 10 µM	0.97 µM	> 10 µM	> 10 µM	> 10000 nM	> 10000 nM	> 10000 nM	> 10000 nM	> 10000 nM
COc1cccc(-n2ncc(Cl)c(Cl)c2=O)c1 [compound 267061]	0.31 µM	0.37 µM	1.2 µM	1.34 µM	0.46 µM	0.24 µM	1.7 µM	3.91 µM	290 nM	850 nM	280 nM	1630 nM	1200 nM
COc1nn(-c2cccc(C)c2)c(=O)c(Cl)c1Cl [compound 257028]	1.18 µM	0.65 µM	2.38 µM	1.76 µM	1.83 µM	0.94 µM	5.24 µM	7.52 µM	1930 nM	2400 nM	680 nM	5230 nM	4040 nM
Cc1ccc(-n2ncc(Cl)c(Cl)c2=O)cc1C [compound 257019]	0.89 µM	0.29 µM	2.01 µM	1.23 µM	0.79 µM	0.24 µM	3.24 µM	7.02 µM	620 nM	1980 nM	690 nM	4090 nM	4380 nM
CCc1cccc(-n2ncc(Cl)c(Cl)c2=O)c1 [compound 267062]	0.47 µM	0.46 µM	1.51 µM	1.5 µM	0.66 µM	0.24 µM	1.85 µM	6.44 µM	380 nM	1510 nM	390 nM	2880 nM	2550 nM
Cc1cccc(-n2ncc(Br)c(Br)c2=O)c1 [compound 267071]	0.36 µM	0.22 µM	0.76 µM	0.81 µM	0.4 µM	0.21 µM	1.61 µM	2.61 µM	240 nM	860 nM	260 nM	1430 nM	1260 nM
O=c1c(Cl)c(Cl)cnn1-c1ccc2c(c1)OCCO2 [compound 267068]	0.37 µM	0.25 µM	1.23 µM	1.2 µM	0.78 µM	0.43 µM	1.56 µM	3.96 µM	420 nM	880 nM	290 nM	1970 nM	1590 nM
O=c1c(Cl)c(Cl)cnn1-c1ccc(C(F)(F)F)cc1 [compound 267060]	1.27 µM	0.69 µM	2.29 µM	2.27 µM	1.39 µM	0.29 µM	3.44 µM	> 10 µM	560 nM	3490 nM	1070 nM	4260 nM	6000 nM
O=c1c(Cl)c(Cl)cnn1-c1ccc2c(c1)CCC2 [compound 267066]	2.23 µM	0.19 µM	4.61 µM	1.35 µM	2.81 µM	0.42 µM	1.74 µM	5.37 µM	1660 nM	5870 nM	2040 nM	6560 nM	8720 nM
NCCCOc1cccc(-n2ncc(Br)c(Br)c2=O)c1 [compound 273634]	0.41 µM	0.44 µM	0.99 µM	1.11 µM	0.69 µM	0.24 µM	2.94 µM	4.53 µM	350 nM	970 nM	380 nM	1470 nM	1420 nM
